Experimental data published in patent US7851474B2, “Dipiperazinyl ketones and related analogues” (Neurogen Corporation, priority 2005, dated 2010).
Like-named read-outs stand apart in the source and are kept apart here.

Molecular target: T1, chimeric human H3 receptor (Homo sapiens, UniProt Q9Y5N1, E19D)
T1 construct: made in house; host or cells: Sf9 insect cells (baculovirus infection); P2 membrane preparation
Experiment: Chimeric human H3 receptor screening GTP binding assay (inhibition of histamine-stimulated GTP-gamma35S binding, Example 8)
Assay type: biochemical
Settings: 1 h, read-out: percent inhibition of agonist-induced GTP-gammaS binding to H3
Procedure, shortened: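 Data are percent inhibition of the 1 μM histamine-stimulated GTP-gamma35S (125 pM) binding, after non-specific binding (10 uM GTP-gammaS) is subtracted. Test compound at 4 μM. Incubation was 60 min at room temperature with Sf9 membranes bearing receptor plus G-protein subunits, buffer pH 7.4 with 10 μM GDP, and filtration read-out.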

[1] = Table II "Ki", symbol "+": assay described in Example 8
[2] = "+" in Ki of Table II, assay of Example 8
[3] = Table II, "+" in the column headed Ki, assay of Example 8
[4] = assay described in Example 8, symbol + in column headed Ki of Table II

T1 sequence (Q9Y5N1 with tags, fused parts or gaps E19D): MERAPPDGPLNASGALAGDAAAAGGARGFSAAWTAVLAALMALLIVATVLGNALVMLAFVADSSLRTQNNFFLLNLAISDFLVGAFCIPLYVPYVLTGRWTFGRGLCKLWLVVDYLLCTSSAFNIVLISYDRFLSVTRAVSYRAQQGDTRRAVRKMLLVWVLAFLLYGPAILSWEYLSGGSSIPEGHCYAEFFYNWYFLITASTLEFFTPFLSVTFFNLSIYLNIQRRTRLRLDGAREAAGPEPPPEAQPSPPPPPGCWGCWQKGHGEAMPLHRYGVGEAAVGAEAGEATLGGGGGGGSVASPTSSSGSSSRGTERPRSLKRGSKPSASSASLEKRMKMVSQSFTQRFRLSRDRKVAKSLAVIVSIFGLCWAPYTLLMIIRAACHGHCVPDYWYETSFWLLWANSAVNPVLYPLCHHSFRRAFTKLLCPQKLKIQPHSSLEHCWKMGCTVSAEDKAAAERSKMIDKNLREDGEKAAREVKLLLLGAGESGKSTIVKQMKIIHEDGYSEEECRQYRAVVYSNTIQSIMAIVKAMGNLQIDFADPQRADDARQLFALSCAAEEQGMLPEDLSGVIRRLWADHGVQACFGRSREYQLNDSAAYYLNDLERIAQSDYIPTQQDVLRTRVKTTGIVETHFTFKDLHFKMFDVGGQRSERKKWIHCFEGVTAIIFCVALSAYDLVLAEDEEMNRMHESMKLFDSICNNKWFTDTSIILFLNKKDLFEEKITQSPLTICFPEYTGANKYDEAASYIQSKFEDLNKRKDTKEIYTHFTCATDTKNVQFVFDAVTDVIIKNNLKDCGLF

Structure (SMILES): CCCc1ccc(C(=O)N2CCN(CC(=O)N3CCN(C4CCC4)CC3)CC2)cc1 [Compound 790, 1-cyclobutyl-4-{[4-(4-propylbenzoyl)piperazin-1-yl]acetyl}piperazine]
- inhibition at 4 µM [1]: > 90%

Structure (SMILES): COc1cccc(CC(=O)N2CCN(CC(=O)N3CCN(C4CCC4)CC3)CC2)c1OC [Compound 502, 1-cyclobutyl-4-({4-[(2,3-dimethoxyphenyl)acetyl]piperazin-1-yl}acetyl)piperazine]
- inhibition at 4 µM [2]: > 90%

Structure (SMILES): O=C(/C=C/c1ccccc1C(F)(F)F)N1CCN(CC(=O)N2CCN(C3CCC3)CC2)CC1 [Compound 614, 1-cyclobutyl-4-[(4-{(2E)-3-[2-(trifluoromethyl)phenyl]prop-2-enoyl}piperazin-1-yl)acetyl]piperazine]
- inhibition at 4 µM [3]: > 90%

Structure (SMILES): O=C(Cc1ccc(C(F)(F)F)cc1)N1CCN(CC(=O)N2CCN(C3CCC3)CC2)CC1 [Compound 631, 1-cyclobutyl-4-[(4-{[4-(trifluoromethyl)phenyl]acetyl}piperazin-1-yl)acetyl]piperazine]
- inhibition at 4 µM [3]: > 90%

Structure (SMILES): O=C(CN1CCN(C(=O)c2ccccc2CCc2ccccc2)CC1)N1CCN(C2CCC2)CC1 [Compound 574, 1-cyclobutyl-4-({4-[2-(2-phenylethyl)benzoyl]piperazin-1-yl}acetyl)piperazine]
- inhibition at 4 µM [3]: > 90%

Structure (SMILES): COc1ccc(/C=C/C(=O)N2CCN(CC(=O)N3CCN(C4CCC4)CC3)CC2)c(Cl)c1OC [Compound 387, 1-[(2E)-3-(2-chloro-3,4-dimethoxyphenyl)prop-2-enoyl]-4-[2-(4-cyclobutylpiperazin-1-yl)-2-oxoethyl]piperazine]
- inhibition at 4 µM [4]: > 90%

Structure (SMILES): CC(C)c1ccc(CC(=O)N2CCN(CC(=O)N3CCN(C4CCC4)CC3)CC2)cc1 [Compound 560, 1-cyclobutyl-4-({4-[(4-isopropylphenyl)acetyl]piperazin-1-yl}acetyl)piperazine]
- inhibition at 4 µM [2]: > 90%

Structure (SMILES): O=C(/C=C/c1cccc(C(F)(F)F)c1)N1CCN(CC(=O)N2CCN(C3CCC3)CC2)CC1 [Compound 615, 1-cyclobutyl-4-[(4-{(2E)-3-[3-(trifluoromethyl)phenyl]prop-2-enoyl}piperazin-1-yl)acetyl]piperazine]
- inhibition at 4 µM [3]: > 90%

Structure (SMILES): O=C(/C=C/c1ccc(Cl)cc1)N1CCN(CC(=O)N2CCN(C3CCC3)CC2)CC1 [Compound 391, 1-[(2E)-3-(4-chlorophenyl)prop-2-enoyl]-4-[2-(4-cyclobutylpiperazin-1-yl)-2-oxoethyl]piperazine]
- inhibition at 4 µM [4]: > 90%

Structure (SMILES): O=C(CN1CCN(C(=O)c2cccnc2Oc2ccccc2)CC1)N1CCN(C2CCC2)CC1 [Compound 542, 1-cyclobutyl-4-({4-[(2-phenoxypyridin-3-yl)carbonyl]piperazin-1-yl}acetyl)piperazine]
- inhibition at 4 µM [2]: > 90%

Structure (SMILES): O=C(CN1CCN(C(=O)c2ccc(OCC(F)(F)F)nc2)CC1)N1CCN(C2CCC2)CC1 [Compound 636, 1-cyclobutyl-4-[(4-{[6-(2,2,2-trifluoroethoxy)pyridin-3-yl]carbonyl}piperazin-1-yl)acetyl]piperazine]
- inhibition at 4 µM [3]: > 90%

Structure (SMILES): CCOc1ccc(Br)cc1/C=C/C(=O)N1CCN(CC(=O)N2CCN(C3CCC3)CC2)CC1 [Compound 392, 1-[(2E)-3-(5-bromo-2-ethoxyphenyl)prop-2-enoyl]-4-[2-(4-cyclobutylpiperazin-1-yl)-2-oxoethyl]piperazine]
- inhibition at 4 µM [4]: > 90%

Structure (SMILES): O=C(CN1CCN(C(=O)c2ccc(F)cc2)CC1)N1CCN(C2CCC2)CC1 [Compound 772, 1-cyclobutyl-4-{[4-(4-fluorobenzoyl)piperazin-1-yl]acetyl}piperazine]
- inhibition at 4 µM [3]: > 90%

Structure (SMILES): COc1cccc(OC)c1C(=O)N1CCN(CC(=O)N2CCN(C3CCC3)CC2)CC1 [Compound 694, 1-cyclobutyl-4-{[4-(2,6-dimethoxybenzoyl)piperazin-1-yl]acetyl}piperazine]
- inhibition at 4 µM [3]: > 90%

Structure (SMILES): O=C(/C=C/c1cccc(Cl)c1)N1CCN(CC(=O)N2CCN(C3CCC3)CC2)CC1 [Compound 390, 1-[(2E)-3-(3-chlorophenyl)prop-2-enoyl]-4-[2-(4-cyclobutylpiperazin-1-yl)-2-oxoethyl]piperazine]
- inhibition at 4 µM [4]: > 90%

Structure (SMILES): O=C(CN1CCN(C(=O)c2c(-c3ccccc3)nnc3ccccc23)CC1)N1CCN(C2CCC2)CC1 [Compound 1090]
- inhibition at 4 µM (Table II, assay of Example 8, "+" in Ki): > 90%

Structure (SMILES): COc1cscc1C(=O)N1CCN(CC(=O)N2CCN(C3CCC3)CC2)CC1 [Compound 561, 1-cyclobutyl-4-({4-[(4-methoxy-3-thienyl)carbonyl]piperazin-1-yl}acetyl)piperazine]
- inhibition at 4 µM [2]: > 90%

Structure (SMILES): O=C(Cc1ccc(Br)cc1)N1CCN(CC(=O)N2CCN(C3CCC3)CC2)CC1 [Compound 403, 1-[(4-bromophenyl)acetyl]-4-[2-(4-cyclobutylpiperazin-1-yl)-2-oxoethyl]piperazine]
- inhibition at 4 µM [4]: > 90%

Structure (SMILES): O=C(/C=C/c1ccc(F)cc1)N1CCN(CC(=O)N2CCN(C3CCC3)CC2)CC1 [Compound 529, 1-cyclobutyl-4-({4-[(2E)-3-(4-fluorophenyl)prop-2-enoyl]piperazin-1-yl}acetyl)piperazine]
- inhibition at 4 µM [2]: > 90%

Structure (SMILES): O=C(Cc1ccc(Cl)cc1)N1CCN(CC(=O)N2CCN(C3CCC3)CC2)CC1 [Compound 407, 1-[(4-chlorophenyl)acetyl]-4-[2-(4-cyclobutylpiperazin-1-yl)-2-oxoethyl]piperazine]
- inhibition at 4 µM [4]: > 90%

Structure (SMILES): Cc1ccc(C)c(C(=O)N2CCN(CC(=O)N3CCN(C4CCC4)CC3)CC2)c1 [Compound 689, 1-cyclobutyl-4-{[4-(2,5-dimethylbenzoyl)piperazin-1-yl]acetyl}piperazine]
- inhibition at 4 µM [3]: > 90%

Structure (SMILES): O=C(Cc1ccc(-c2ccccc2)cc1)N1CCN(CC(=O)N2CCN(C3CCC3)CC2)CC1 [Compound 375, 1-(biphenyl-4-ylacetyl)-4-[2-(4-cyclobutylpiperazin-1-yl)-2-oxoethyl]piperazine]
- inhibition at 4 µM [4]: > 90%

Structure (SMILES): O=C(CN1CCN(C(=O)c2cncc(C#Cc3ccccc3)c2)CC1)N1CCN(C2CCC2)CC1 [Compound 634, 1-cyclobutyl-4-[(4-{[5-(phenylethynyl)pyridin-3-yl]carbonyl}piperazin-1-yl)acetyl]piperazine]
- inhibition at 4 µM [3]: > 90%

Structure (SMILES): O=C(Cc1ccc(F)cc1F)N1CCN(CC(=O)N2CCN(C3CCC3)CC2)CC1 [Compound 506, 1-cyclobutyl-4-({4-[(2,4-difluorophenyl)acetyl]piperazin-1-yl}acetyl)piperazine]
- inhibition at 4 µM [2]: > 90%

Structure (SMILES): O=C(Cc1cccc(Cl)c1)N1CCN(CC(=O)N2CCN(C3CCC3)CC2)CC1 [Compound 400, 1-[(3-chlorophenyl)acetyl]-4-[2-(4-cyclobutylpiperazin-1-yl)-2-oxoethyl]piperazine]
- inhibition at 4 µM [4]: > 90%

Structure (SMILES): O=C(/C=C/c1ccc(-c2ccccc2)cc1)N1CCN(CC(=O)N2CCN(C3CCC3)CC2)CC1 [Compound 394, 1-[(2E)-3-biphenyl-4-ylprop-2-enoyl]-4-[2-(4-cyclobutylpiperazin-1-yl)-2-oxoethyl]piperazine]
- inhibition at 4 µM [4]: > 90%

Structure (SMILES): COc1cccc(C(=O)N2CCN(CC(=O)N3CCN(C4CCC4)CC3)CC2)c1 [Compound 757, 1-cyclobutyl-4-{[4-(3-methoxybenzoyl)piperazin-1-yl]acetyl}piperazine]
- inhibition at 4 µM [3]: > 90%

Structure (SMILES): Cc1oc(-c2ccc(Cl)cc2)cc1C(=O)N1CCN(CC(=O)N2CCN(C3CCC3)CC2)CC1 [Compound 470, 1-[5-(4-chlorophenyl)-2-methyl-3-furoyl]-4-[2-(4-cyclobutylpiperazin-1-yl)-2-oxoethyl]piperazine]
- inhibition at 4 µM [2]: > 90%

Structure (SMILES): O=C(CN1CCN(C(=O)c2cccnc2Oc2ccc(Cl)cc2)CC1)N1CCN(C2CCC2)CC1 [Compound 473, 1-{[2-(4-chlorophenoxy)pyridin-3-yl]carbonyl}-4-[2-(4-cyclobutylpiperazin-1-yl)-2-oxoethyl]piperazine]
- inhibition at 4 µM [2]: > 90%

Structure (SMILES): O=C(Cc1ccccc1OC(F)(F)F)N1CCN(CC(=O)N2CCN(C3CCC3)CC2)CC1 [Compound 621, 1-cyclobutyl-4-[(4-{[2-(trifluoromethoxy)phenyl]acetyl}piperazin-1-yl)acetyl]piperazine]
- inhibition at 4 µM [3]: > 90%

Structure (SMILES): O=C(CN1CCN(C(=O)c2cc(C(F)(F)F)cc(C(F)(F)F)c2)CC1)N1CCN(C2CCC2)CC1 [Compound 456, 1-[3,5-bis(trifluoromethyl)benzoyl]-4-[2-(4-cyclobutylpiperazin-1-yl)-2-oxoethyl]piperazine]
- inhibition at 4 µM [2]: > 90%

Structure (SMILES): CCn1nc(C)cc1C(=O)N1CCN(CC(=O)N2CCN(C3CCC3)CC2)CC1 [Compound 499, 1-cyclobutyl-4-({4-[(1-ethyl-3-methyl-1H-pyrazol-5-yl)carbonyl]piperazin-1-yl}acetyl)piperazine]
- inhibition at 4 µM [2]: > 90%

Structure (SMILES): O=C(CN1CCN(C(=O)c2ccccc2Cc2ccccc2)CC1)N1CCN(C2CCC2)CC1 [Compound 270, 1-(2-benzylbenzoyl)-4-[2-(4-cyclobutylpiperazin-1-yl)-2-oxoethyl]piperazine]
- inhibition at 4 µM [4]: > 90%

Structure (SMILES): CNc1ccccc1C(=O)N1CCN(CC(=O)N2CCN(C3CCC3)CC2)CC1 [Compound 891, 2-({4-[2-(4-cyclobutylpiperazin-1-yl)-2-oxoethyl]piperazin-1-yl}carbonyl)-N-methylaniline]
- inhibition at 4 µM [1]: > 90%

Structure (SMILES): CCCCOc1ccccc1C(=O)N1CCN(CC(=O)N2CCN(C3CCC3)CC2)CC1 [Compound 272, 1-(2-butoxybenzoyl)-4-[2-(4-cyclobutylpiperazin-1-yl)-2-oxoethyl]piperazine]
- inhibition at 4 µM [4]: > 90%

Structure (SMILES): Cc1cc(C)cc(C(=O)N2CCN(CC(=O)N3CCN(C4CCC4)CC3)CC2)c1 [Compound 742, 1-cyclobutyl-4-{[4-(3,5-dimethylbenzoyl)piperazin-1-yl]acetyl}piperazine]
- inhibition at 4 µM [3]: > 90%
